From ChEMBL document CHEMBL1153599, “Synthesis of new chiral 2,5-disubstituted 1,3,4-thiadiazoles possessing gamma-butenolide moiety and preliminary evaluation of in vitro anticancer activity” (Eur J Med Chem, 2009)
One block for each compound: values may come before it.

Legend:
[1] = tested on: HeLa; assay: Viability of human HeLa cells at 0.1 uM after 24 hrs by MTT assay
[2] = tested on: HeLa; assay: Anticancer activity against human HeLa cells after 24 hrs by MTT assay; assay type: functional, cell-based
[3] = tested on: HeLa; assay: Viability of human HeLa cells at 5 uM after 24 hrs by MTT assay
[4] = tested on: HeLa; assay: Viability of human HeLa cells at 20 uM after 24 hrs by MTT assay
[5] = tested on: HeLa; assay: Viability of human HeLa cells at 1 uM after 24 hrs by MTT assay
[6] = tested on: HeLa; assay: Viability of human HeLa cells at 10 uM after 24 hrs by MTT assay

SMILES: CC1CCC(C(C)C)C(O[C@H]2OC(=O)C(Br)=C2Sc2nnc(-c3ccc([N+](=O)[O-])cc3)s2)C1 (some centres not stated)
- viability at 0.1 µM [1]: 59.2%
- IC50 [2]: 900 nM
- viability at 5 µM [3]: 30%
- viability at 20 µM [4]: 24.5%
- viability at 1 µM [5]: 47.6%
- viability at 10 µM [6]: 34.5%

SMILES: CC1CCC(C(C)C)C(O[C@H]2OC(=O)C(Br)=C2Sc2nnc(-c3ccc(Cl)cc3)s2)C1 (some centres not stated)
- viability at 0.1 µM [1]: 51%
- IC50 [2]: 2200 nM
- viability at 5 µM [3]: 29.3%
- viability at 20 µM [4]: 26.8%
- viability at 1 µM [5]: 58.2%
- viability at 10 µM [6]: 35.1%

SMILES: CC1(C)C2CCC1(C)C(O[C@H]1OC(=O)C(Br)=C1Sc1nnc(-c3cccnc3)s1)C2 (some centres not stated)
- viability at 0.1 µM [1]: 58.9%
- IC50 [2]: 3400 nM
- viability at 5 µM [3]: 45.4%
- viability at 20 µM [4]: 36.3%
- viability at 1 µM [5]: 56.3%
- viability at 10 µM [6]: 40.5%

SMILES: CC1(C)C2CCC1(C)C(O[C@H]1OC(=O)C(Br)=C1Sc1nnc(-c3ccncc3)s1)C2 (some centres not stated)
- viability at 0.1 µM [1]: 51.8%
- IC50 [2]: 3000 nM
- viability at 5 µM [3]: 44.9%
- viability at 20 µM [4]: 40.6%
- viability at 1 µM [5]: 55.1%
- viability at 10 µM [6]: 39.4%

SMILES: CC1(C)C2CCC1(C)C(O[C@H]1OC(=O)C(Br)=C1Sc1nnc(-c3ccco3)s1)C2 (some centres not stated)
- viability at 0.1 µM [1]: 50.9%
- IC50 [2]: 1300 nM
- viability at 5 µM [3]: 31.1%
- viability at 20 µM [4]: 34.3%
- viability at 1 µM [5]: 51.4%
- viability at 10 µM [6]: 28.6%

SMILES: COc1ccc(-c2nnc(SC3=C(Br)C(=O)O[C@@H]3OC3CC(C)CCC3C(C)C)s2)cc1 (some centres not stated)
- viability at 0.1 µM [1]: 56.4%
- IC50 [2]: 3700 nM
- viability at 5 µM [3]: 47.1%
- viability at 20 µM [4]: 32.9%
- viability at 1 µM [5]: 55.6%
- viability at 10 µM [6]: 35.6%

The next lines start with results.

- IC50 [2]: 3000 nM
SMILES: CC1CCC(C(C)C)C(O[C@H]2OC(=O)C(Br)=C2Sc2nnc(-c3ccccc3)s2)C1 (some centres not stated)
- viability at 0.1 µM [1]: 56.1%
- viability at 5 µM [3]: 40.6%
- viability at 20 µM [4]: 29.7%
- viability at 1 µM [5]: 59.1%
- viability at 10 µM [6]: 28.1%

- IC50 [2]: 2900 nM
SMILES: CC1CCC(C(C)C)C(O[C@H]2OC(=O)C(Br)=C2Sc2nnc(-c3ccccc3O)s2)C1 (some centres not stated)
- viability at 0.1 µM [1]: 58.9%
- viability at 5 µM [3]: 37.5%
- viability at 20 µM [4]: 33.4%
- viability at 1 µM [5]: 61.2%
- viability at 10 µM [6]: 42.3%

- IC50 [2]: 1700 nM
SMILES: CC1CCC(C(C)C)C(O[C@H]2OC(=O)C(Br)=C2Sc2nnc(-c3ccco3)s2)C1 (some centres not stated)
- viability at 0.1 µM [1]: 55.6%
- viability at 5 µM [3]: 29.4%
- viability at 20 µM [4]: 27.2%
- viability at 1 µM [5]: 54.3%
- viability at 10 µM [6]: 36.9%

- IC50 [2]: 5600 nM
SMILES: CC1CCC(C(C)C)C(O[C@H]2OC(=O)C(Br)=C2Sc2nnc(-c3cccnc3)s2)C1 (some centres not stated)
- viability at 0.1 µM [1]: 56.4%
- viability at 5 µM [3]: 52.3%
- viability at 20 µM [4]: 33%
- viability at 1 µM [5]: 59.5%
- viability at 10 µM [6]: 32.8%

- IC50 [2]: 1300 nM
SMILES: CC1CCC(C(C)C)C(O[C@H]2OC(=O)C(Br)=C2Sc2nnc(-c3ccncc3)s2)C1 (some centres not stated)
- viability at 0.1 µM [1]: 73.8%
- viability at 5 µM [3]: 33.9%
- viability at 20 µM [4]: 22.3%
- viability at 1 µM [5]: 51.3%
- viability at 10 µM [6]: 26.8%

- IC50 [2]: 2600 nM
SMILES: CC1CCC(C(C)C)C(O[C@H]2OC(=O)C(Br)=C2Sc2nnc(-c3ccc(O)cc3)s2)C1 (some centres not stated)
- viability at 0.1 µM [1]: 60.6%
- viability at 5 µM [3]: 36%
- viability at 20 µM [4]: 36%
- viability at 1 µM [5]: 59.4%
- viability at 10 µM [6]: 44.4%
